The source made the active and inactive calls. The rule behind the calls is not given here.
Assays:
[1] = target: Transcription factor p65 (Homo sapiens) (UniProt Q04206); experiment: Effect on NFkappaB p65 nuclear translocation in human U118MG cells at 0.2 to 0.5 after 48 hrs by Western blot analysis; assay type: cell-based
[2] = test system: U-87 MG; experiment: Antiinvasive activity against human U87 cells transfected with lentivirus expressing shNC at 2 uM incubated for 48 hrs by crystal violet staining based transwell assay; assay type: functional, cell-based; settings: U-87MG ATCC
[3] = test system: C6; experiment: Antiproliferative activity against rat C6 cells assessed as reduction in cell viability after 72 hrs by MTT assay; assay type: functional, cell-based; settings: C6, 72 h
[4] = target: T1, Pyruvate kinase PKM (Homo sapiens, UniProt P14618); experiment: Activation of PKM2 in human U87 cells assessed as reduction in vimentin expression at 1 to 2 uM after 24 hrs by Western blot analysis; assay type: cell-based; settings: U-87MG ATCC
T1 sequence (P14618 2-531 limits assumed): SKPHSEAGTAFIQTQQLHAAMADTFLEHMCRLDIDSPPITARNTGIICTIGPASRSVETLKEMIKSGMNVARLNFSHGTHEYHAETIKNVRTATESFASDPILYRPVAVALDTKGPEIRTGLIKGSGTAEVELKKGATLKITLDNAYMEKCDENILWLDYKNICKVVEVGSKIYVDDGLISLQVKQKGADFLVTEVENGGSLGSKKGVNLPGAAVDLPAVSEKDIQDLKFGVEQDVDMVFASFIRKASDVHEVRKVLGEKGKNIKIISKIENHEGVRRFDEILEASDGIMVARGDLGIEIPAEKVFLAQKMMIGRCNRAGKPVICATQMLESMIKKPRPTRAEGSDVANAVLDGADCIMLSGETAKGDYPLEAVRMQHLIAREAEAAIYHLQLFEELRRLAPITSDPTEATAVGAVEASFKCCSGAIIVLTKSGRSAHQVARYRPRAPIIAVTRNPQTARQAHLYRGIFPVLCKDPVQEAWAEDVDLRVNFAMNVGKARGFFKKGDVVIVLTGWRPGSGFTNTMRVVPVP

[5] = test system: A549; experiment: Antiproliferative activity against human A549 cells assessed as reduction in cell viability after 72 hrs by MTT assay; assay type: functional, cell-based; settings: A549, 72 h
[6] = test system: HepG2; experiment: Antiproliferative activity against human HepG2 cells assessed as reduction in cell viability after 72 hrs by MTT assay; assay type: functional, cell-based; settings: HepG2, 72 h
[7] = test system: U-118-MG; experiment: Induction of apoptosis in human U118MG cells transfected with lentivirus expressing shPKM2 assessed as viable cells after 48 hrs by Annexin-V-FITC/PI-staining based flow cytometric analysis (reference value: 97.7%); assay type: functional
[8] = test system: U-87MG ATCC; experiment: Induction of PDK4 protein expression in human U87 cells at 5 uM after 48 hrs by Western blot analysis; assay type: functional, cell-based
[9] = test system: NIH3T3; experiment: Cytotoxicity against mouse 3T3 cells assessed as reduction in cell viability after 72 hrs by MTT assay; assay type: cell-based; settings: NIH3T3, 72 h
[10] = test system: U-87 MG; experiment: Induction of apoptosis in human U87 cells after 48 hrs by Annexin-V-FITC/PI-staining based flow cytometric analysis; assay type: functional, cell-based; settings: U-87MG ATCC
[11] = Antiproliferative activity against human SHG44 cells assessed as reduction in cell viability after 72 hrs by MTT assay; assay type: functional, cell-based; settings: SHG-44, 72 h
[12] = test system: U-87 MG; experiment: Induction of apoptosis in human U87 cells transfected with lentivirus expressing shNC assessed as necrotic cells after 48 hrs by Annexin-V-FITC/PI-staining based flow cytometric analysis (reference value: 0.319%); assay type: functional, U-87MG ATCC
[13] = test system: U-118-MG; experiment: Antiproliferative activity against human U118MG cells assessed as reduction in cell viability after 72 hrs by MTT assay; assay type: functional, cell-based
[14] = test system: U-87 MG; experiment: Induction of apoptosis in human U87 cells transfected with lentivirus expressing shPKM2 assessed as necrotic cells after 48 hrs by Annexin-V-FITC/PI-staining based flow cytometric analysis (reference value: 0.580%); assay type: functional, U-87MG ATCC
[15] = test system: SUM-159-PT; experiment: Antiproliferative activity against human SUM159 cells assessed as reduction in cell viability after 72 hrs by MTT assay; assay type: functional, cell-based
[16] = test system: U-118-MG; experiment: Induction of apoptosis in human U118MG cells transfected with lentivirus expressing shPKM2 assessed as early apoptotic cells after 48 hrs by Annexin-V-FITC/PI-staining based flow cytometric analysis (reference value: 2%); assay type: functional
[17] = target: T1, Pyruvate kinase PKM; experiment: Activation of PKM2 in human U118MG cells assessed as inhibition of STAT3 phosphorylation at 1 to 2 uM after 24 hrs by Western blot analysis; assay type: cell-based
[18] = target: T1, Pyruvate kinase PKM; experiment: Activation of PKM2 in human U87 cells assessed as inhibition of STAT3 protein expression at 1 to 2 uM after 24 hrs by Western blot analysis; assay type: cell-based; settings: U-87MG ATCC
[19] = test system: U-118-MG; experiment: Induction of apoptosis in human U118MG cells assessed as early apoptotic cells after 48 hrs by Annexin-V-FITC/PI-staining based flow cytometric analysis (reference value: 1.35%); assay type: functional
[20] = test system: U-87MG ATCC; experiment: Effect on P65 protein expression in human U87 cells at 0.2 to 0.5 uM after 48 hrs by Western blot analysis; assay type: functional, cell-based
[21] = target: T1, Pyruvate kinase PKM; experiment: Activation of PKM2 in human U118MG cells assessed as increase in bax protein expression at 1 to 2 uM after 48 hrs by Western blot analysis; assay type: cell-based
[22] = test system: HeLa; experiment: Antiproliferative activity against human HeLa cells assessed as reduction in cell viability after 72 hrs by MTT assay; assay type: functional, cell-based
[23] = test system: U-87 MG; experiment: Induction of apoptosis in human U87 cells assessed as early apoptotic cells after 48 hrs by Annexin-V-FITC/PI-staining based flow cytometric analysis (reference value: 4.91%); assay type: functional, U-87MG ATCC
[24] = target: T1, Pyruvate kinase PKM; experiment: Inhibition of PKM2 dimer nuclear translocation in human U87 cells assessed as reduction in PKM2 accumulation in nucleus at 0.5 to 1 uM after 48 hrs by Western blot analysis; assay type: cell-based; settings: U-87MG ATCC
[25] = test system: U-87 MG; experiment: Antiproliferative activity against human U87 cells assessed as reduction in cell viability after 72 hrs by MTT assay; assay type: functional, cell-based, U-87MG ATCC
[26] = target: T1, Pyruvate kinase PKM; experiment: Activation of PKM2 in human U87 cells assessed as increase in PKM2 tetramer formation at 0.5 to 1 uM after 48 hrs by chemical cross-linking based Western blot analysis; assay type: cell-based; settings: U-87MG ATCC
[27] = test system: U-118-MG; experiment: Antimigratory activity against human U118MG cells transfected with lentivirus expressing shPKM2 at 2 uM incubated for 48 hrs by crystal violet staining based transwell assay; assay type: functional, cell-based
[28] = target: T1, Pyruvate kinase PKM; experiment: Activation of recombinant human N-terminal 6His-tagged PKM2 expressed in Escherichia coli BL21 cells at 0.2 to 0.5 uM after 50 mins by fluorescence based analysis
[29] = target: T1, Pyruvate kinase PKM; experiment: Induction of tetrameric formation of recombinant human N-terminal 6His-tagged PKM2 expressed in Escherichia coli BL21 cells assessed as increase in particle size at 10 uM after 30 mins by dynamic laser light scattering analysis
[30] = test system: U-118-MG; experiment: Antimetastatic activity against human U118MG cells assessed as reduction in cell migration at 2 uM after 24 hrs by crystal violet staining based transwell assay; assay type: functional
[31] = test system: U-87 MG; experiment: Induction of apoptosis in human U87 cells transfected with lentivirus expressing shNC assessed as viable cells after 48 hrs by Annexin-V-FITC/PI-staining based flow cytometric analysis (reference value: 98.5%); assay type: functional, U-87MG ATCC
[32] = test system: U-118-MG; experiment: Induction of apoptosis in human U118MG cells transfected with lentivirus expressing shNC assessed as necrotic cells after 48 hrs by Annexin-V-FITC/PI-staining based flow cytometric analysis (reference value: 0.418%); assay type: functional
[33] = target: T1, Pyruvate kinase PKM; experiment: Activation of PKM2 in human U87 cells assessed as inhibition of STAT3 phosphorylation at 1 to 2 uM after 24 hrs by Western blot analysis; assay type: cell-based; settings: U-87MG ATCC
[34] = test system: U-87 MG; experiment: Induction of apoptosis in human U87 cells assessed as viable cells after 48 hrs by Annexin-V-FITC/PI-staining based flow cytometric analysis (reference value: 93.8%); assay type: functional, U-87MG ATCC
[35] = test system: U-87 MG; experiment: Antimigratory activity against human U87 cells transfected with lentivirus expressing shPKM2 at 2 uM incubated for 48 hrs by crystal violet staining based transwell assay; assay type: functional, cell-based; settings: U-87MG ATCC
[36] = target: T1, Pyruvate kinase PKM; experiment: Activation of PKM2 in human U118MG cells assessed as inhibition of STAT3 protein expression at 2 uM after 48 hrs by Western blot analysis; assay type: cell-based

Chain of Transcription factor p65 (Homo sapiens) (Q04206 whole entry): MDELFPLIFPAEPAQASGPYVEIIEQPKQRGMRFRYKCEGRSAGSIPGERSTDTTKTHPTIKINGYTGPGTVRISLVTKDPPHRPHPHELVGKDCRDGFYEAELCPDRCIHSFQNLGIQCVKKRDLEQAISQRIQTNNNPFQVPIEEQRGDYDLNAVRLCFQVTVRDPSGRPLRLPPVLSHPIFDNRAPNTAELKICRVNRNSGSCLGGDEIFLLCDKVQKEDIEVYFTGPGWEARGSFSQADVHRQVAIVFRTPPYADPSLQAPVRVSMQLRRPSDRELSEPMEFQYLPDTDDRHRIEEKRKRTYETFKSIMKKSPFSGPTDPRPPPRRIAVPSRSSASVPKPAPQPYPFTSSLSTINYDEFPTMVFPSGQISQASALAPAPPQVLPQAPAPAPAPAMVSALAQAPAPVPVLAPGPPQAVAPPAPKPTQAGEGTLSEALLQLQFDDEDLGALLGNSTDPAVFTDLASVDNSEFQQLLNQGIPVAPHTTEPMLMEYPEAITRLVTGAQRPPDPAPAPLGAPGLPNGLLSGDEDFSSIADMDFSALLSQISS

Activity [1]: inactive
Activity [4]: Active
IC50 [5]: 11.9 µM
IC50 [6]: 10.2 µM
Activity [17]: Active
Activity [18]: Active
Activity [21]: Active
IC50 [22]: 5.05 µM
inhibition [24]: Active
IC50 [25]: 3.03 µM
Activity [26]: Active
Activity [28]: Active
Activity [29]: Active
Activity [33]: Active
Activity [36]: Active
Compound: C=C1C(=O)O[C@H]2[C@H]1CC/C(C(=O)OCCOCCOC(=O)/C1=C/CC[C@@]3(C)O[C@H]3[C@H]3OC(=O)C(=C)[C@@H]3CC1)=C\CC[C@@]1(C)O[C@@H]21
Activity [2]: Active
IC50 [3]: 1.66 µM
Activity [7]: 92.8%
Activity [8]: Active
IC50 [9]: 7.93 µM
Activity [10]: Dose-dependent effect
IC50 [11]: 5.24 µM
Activity [12]: 1.24%
IC50 [13]: 1.8 µM
Activity [14]: 0.539%
IC50 [15]: 2.82 µM
Activity [16]: 5.78%
Activity [19]: 39.4%
Activity [20]: inactive
Activity [23]: 24.4%
Activity [27]: inactive
Activity [30]: Active
Activity [31]: 85.1%
Activity [32]: 1.85%
Activity [34]: 72.5%
Activity [35]: inactive

From ChEMBL document CHEMBL4376892, “Identification of Parthenolide Dimers as Activators of Pyruvate Kinase M2 in Xenografts of Glioblastoma Multiforme in Vivo” (J Med Chem, 2020)
